# Measurements taken from US4952580A, “Pesticidal polyhaloalkene derivatives” (priority 1988, dated 1990).
# Where two headings read alike, the source gives them in different places.
# Columns and labels:
# root-knot nematode [1] = assay: Soil Mobility against root-knot nematode; type: in vivo, Meloidogyne incognita; details: 336 h; for pest or weed control at 0.313 ppm: Table 7, 0.313 ppm; for pest or weed control at 0.625 ppm: Table 7, 0.625 ppm; for pest or weed control at 1.25 ppm: Table 7, 1.25 ppm; for pest or weed control at 2.5 ppm: Table 7, 2.5 ppm; for pest or weed control at 10 ppm: Table 7, 10 ppm
# Method in brief: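 Soil mobility of the nematicidal test material was evaluated by placing treated, nematode-infested soil in 8 cm plastic pots stacked above two or more pots of untreated infested soil, each containing a 10 cm^3 sand layer and filter paper discs. Fifteen cm of water was dripped through, pots drained 16-18 hours, then were planted with cucumber or tomato seedlings and scored for Percent Control.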
# lesion nematode = assay: Lesion Nematode Test; type: in vivo; details: read-out: Percent Control
# Method in brief: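 Run as the stunt nematode test but on pea seedlings; compounds applied as dust formulations (initial and residual activity) or acetone/water formulations (systemic activity), with untreated samples as reference. Percent control derived by formula.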
# root-knot nematode [2] = assay: Systemic Activity (basipetal, foliar spray) against root-knot nematode; type: in vivo, Meloidogyne incognita; details: 336 h, read-out: Percent Control
# Experimental: (§1) Compounds of this invention were tested as follows for nematicidal and anthelmintic activity as dust formulations (initial and residual activity) and as acetone/water formulations (systemic activity). The formulations are described above.
# Compounds of the invention were tested for basipetal systemic activity against the root-knot nematode. In this test, tomato plants are grown in 10.2 cm diameter fiber pots containing steam-pasteurized soil mix (50%, soil, 50% sand) until 4-6 true leaves appear. Three of the pots are then placed on a turntable in a spray hood and the plants sprayed with 50 ml of water/acetone solution containing the test compound. The soil surface is covered during the spraying to prevent spraying of the soil. After treatment, the potted plants are placed in a lighted drying chamber. The plants are then grown in a growth chamber at 25° C. for three days and inoculated with a standard nematode culture by incorporating the inoculum into the top cm of soil in the pots. The plants are returned to the growth chamber for about two weeks at which time the pots are allowed to dry until the plants begin to wilt. The roots are shaken free of soil and the degree of galling (swelling) noted as compared to galling of untreated control plants. The results are expressed as Knot Index and Percent Control as defined in the initial root-knot nematode activity tests reported above in Table 2.
# cyst nematode = assay: Cyst Nematode Test; type: in vivo; details: read-out: Percent Control
# Experimental: as §1
# The procedures was substantially the same as described in the stunt nematode test except soybean seedlings were used. "Percent Control" (Table 6 appended) is as defined in the stunt nematode test results.
# [3] = tested on: root-knot nematode (Meloidogyne incognita); assay: Initial Root-Knot Nematicidal Activity; type: in vivo; details: 336 h, read-out: Percent Control; for pest or weed control at 0.078 ppm: Table 2, Application Rate 0.078 ppm
# Method in brief: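 Compound incorporated into Meloidogyne incognita-infested soil at 10 ppm to 0.078 ppm, then planted with tomato or cucumber seedlings. Root galling scored two weeks after planting as a knot index and converted to percent control, given as averages.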
# root-knot nematode [4] = assay: Residual Root-Knot Nematicidal Activity; type: in vivo, Meloidogyne incognita; details: read-out: Percent Control
# Method in brief: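 Soil received 5% dust formulation at 5 and 10 ppm test compound and was held in a greenhouse, then infested with root-knot nematode eggs and larvae at 1, 2 and 4 weeks post-treatment. Cucumber or tomato seedlings were planted and scored about two weeks after infestation for Knot Index and Percent Control.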
# Caenorhabditis elegans = assay: C. Elegans Nematode Screening Test and Evaluation (in-vitro); details: Caenorhabditis elegans; for mortality at 5 ppm: read-out: Percent Mortality; for inhibition at 5 ppm: read-out: Percent Inhibition of Reproduction
# Method in brief: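 Worms (10-15 per well) in buffer with E. coli food, ampicillin and mycostatin; compound added in DMSO, 2-3 replicates per rate. Incubated 5-6 days at 20° C. Population development scored against untreated wells, noting effects such as reduced egg hatch or molting disruption.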
# stunt nematode = assay: Stunt Nematode Test; type: in vivo
# [5] = Table 7a, 5% dust, 5 ppm, BOTTOM container, read-out: Percent Control
# [6] = Table 7a, 5% dust, 5 ppm, TOP container, read-out: Percent Control
# [7] = read-out: Percent Control, Table 7a, 5% dust, 5 ppm, MIDDLE container
# [8] = Table 2, Application Rate 0.312 ppm
# [9] = Table 2, Application Rate 0.625 ppm
# [10] = Table 2, Application Rate 1.25 ppm
# [11] = Table 2, Application Rate 2.5 ppm
# [12] = 168 h, Table 3a, 5% dust, 5 ppm, inoculation 1 week post-treatment
# [13] = 336 h, Table 3a, 5% dust, 5 ppm, inoculation 2 weeks post-treatment
# [14] = Bottom container, read-out: Percent Control
# [15] = Middle container, read-out: Percent Control
# [16] = Top container, read-out: Percent Control
compound,measurement,setting,value
"FC(F)=C(F)CCSc1nnc(SCc2cccs2)s1 [Compound 36, 2-(2-thienylmethylthio)-5-(3,4,4-trifluoro-3-butenylthio)-1,3,4-thiadiazole]",pest or weed control at 5 ppm,root-knot nematode [1]; [5],0%
same,pest or weed control at 5 ppm,root-knot nematode [1]; [6],97%
same,pest or weed control at 5 ppm,root-knot nematode [1]; [7],17%
same,pest or weed control at 1.25 ppm,"lesion nematode; Table 5, rate 1.25 ppm",2%
same,pest or weed control at 0.625 ppm,"lesion nematode; Table 5, rate .625 ppm",0%
same,pest or weed control at 1250 ppm,"root-knot nematode [2]; Table 8, rate 1250 ppm",17%
same,pest or weed control at 2000 ppm,"root-knot nematode [2]; foliar, Table 8, rate 2000 ppm",97%
same,pest or weed control at 5 ppm,"cyst nematode; Table 6, rate 5 ppm",37%
same,pest or weed control at 0.078 ppm,[3],0%
same,pest or weed control at 0.156 ppm,"[3]; Table 2, Application Rate 0.156 ppm",25%
same,pest or weed control at 0.312 ppm,[3]; [8],69%
same,pest or weed control at 0.625 ppm,[3]; [9],96%
same,pest or weed control at 1.25 ppm,[3]; [10],99%
same,pest or weed control at 2.5 ppm,[3]; [11],100%
same,pest or weed control at 5 ppm,root-knot nematode [4]; [12],98%
same,pest or weed control at 5 ppm,root-knot nematode [4]; [13],99%
same,pest or weed control at 5 ppm,root-knot nematode [4]; 672 h,95%
"FCCSc1nnc(SCCC(F)=C(F)F)s1 [Compound 27, 2-(2-fluoroethylthio)-5-(3,4,4-trifluoro-3-butenylthio)-1,3,4-thiadiazole]",pest or weed control at 5 ppm,"root-knot nematode [1]; read-out: Percent Control, Table 7a, 5% dust, 5 ppm, BOTTOM container",100%
same,pest or weed control at 5 ppm,root-knot nematode [1]; [7],100%
same,pest or weed control at 5 ppm,"root-knot nematode [1]; read-out: Percent Control, Table 7a, 5% dust, 5 ppm, TOP container",99%
same,mortality at 5 ppm,"Caenorhabditis elegans; Table 9 screen, 5 ppm",0%
same,inhibition at 5 ppm,Caenorhabditis elegans,38%
same,pest or weed control at 2.5 ppm,lesion nematode,63%
same,pest or weed control at 5 ppm,cyst nematode,57%
same,pest or weed control at 0.312 ppm,[3],31%
same,pest or weed control at 0.625 ppm,[3],79%
same,pest or weed control at 1.25 ppm,[3],99%
same,pest or weed control at 2.5 ppm,[3],100%
same,pest or weed control at 5 ppm,root-knot nematode [4]; 168 h,99%
same,pest or weed control at 5 ppm,root-knot nematode [4]; 336 h,97%
same,pest or weed control at 5 ppm,root-knot nematode [4]; 672 h,99%
same,pest or weed control at 5 ppm,stunt nematode; 672 h; Table 4a; rate 5 ppm; read-out: Percent Control,62%
"FC(F)=C(F)CCSC1=NCCS1 [Compound 1, 2-(3,4,4-trifluoro-3-butenylthio)-4,5-dihydrothiazole]",pest or weed control at 0.313 ppm,root-knot nematode [1]; [14],25%
same,pest or weed control at 0.313 ppm,root-knot nematode [1]; [15],75%
same,pest or weed control at 0.313 ppm,root-knot nematode [1]; [16],77%
same,pest or weed control at 0.625 ppm,root-knot nematode [1]; [14],77%
same,pest or weed control at 0.625 ppm,root-knot nematode [1]; [15],98%
same,pest or weed control at 0.625 ppm,root-knot nematode [1]; [16],97%
same,pest or weed control at 1.25 ppm,root-knot nematode [1]; [14],96%
same,pest or weed control at 1.25 ppm,root-knot nematode [1]; [15],99%
same,pest or weed control at 1.25 ppm,root-knot nematode [1]; [16],100%
same,pest or weed control at 2.5 ppm,root-knot nematode [1]; [14],100%
same,pest or weed control at 2.5 ppm,root-knot nematode [1]; [15],100%
same,pest or weed control at 2.5 ppm,root-knot nematode [1]; [16],100%
same,pest or weed control at 5 ppm,"root-knot nematode [1]; Table 7, 5 ppm, Bottom container, read-out: Percent Control",99%
same,pest or weed control at 5 ppm,"root-knot nematode [1]; Table 7, 5 ppm, Middle container, read-out: Percent Control",98%
same,pest or weed control at 5 ppm,"root-knot nematode [1]; Table 7, 5 ppm, Top container, read-out: Percent Control",100%
same,pest or weed control at 10 ppm,"root-knot nematode [1]; container 1 (Top), read-out: Percent Control",100%
same,pest or weed control at 10 ppm,"root-knot nematode [1]; container 2, read-out: Percent Control",100%
same,pest or weed control at 10 ppm,"root-knot nematode [1]; container 3, read-out: Percent Control",100%
same,pest or weed control at 10 ppm,"root-knot nematode [1]; container 4, read-out: Percent Control",99%
same,pest or weed control at 10 ppm,"root-knot nematode [1]; container 5, read-out: Percent Control",97%
same,pest or weed control at 10 ppm,"root-knot nematode [1]; container 6 (Bottom), read-out: Percent Control",42%
same,pest or weed control at 30 ppm,"root-knot nematode [1]; Table 7, 30 ppm, Bottom container, read-out: Percent Control",85%
same,pest or weed control at 30 ppm,"root-knot nematode [1]; Table 7, 30 ppm, Top container, read-out: Percent Control",97%
same,pest or weed control at 30 ppm,"root-knot nematode [1]; read-out: Percent Control, Table 7, 30 ppm, Middle container",95%
same,pest or weed control at 2.5 ppm,"lesion nematode; Table 5, rate 2.5 ppm",0%
same,pest or weed control at 5 ppm,"cyst nematode; Table 6, rate 5 ppm",94%
same,pest or weed control at 5 ppm,"cyst nematode; Table 6, rate 5 ppm, whole cysts rather than homogenized cysts",79%
same,pest or weed control at 0.078 ppm,[3],56%
same,pest or weed control at 0.313 ppm,"[3]; Table 2, Application Rate 0.313 ppm",99%
same,pest or weed control at 0.625 ppm,[3]; [9],100%
same,pest or weed control at 1.25 ppm,[3]; [10],99%
same,pest or weed control at 2.5 ppm,[3]; [11],99%
same,pest or weed control at 5 ppm,"[3]; Table 2, Application Rate 5.0 ppm",99%
same,pest or weed control at 10 ppm,"[3]; Table 2, Application Rate 10.0 ppm",100%
same,pest or weed control at 0.156 ppm,[3],95%
same,pest or weed control at 5 ppm,"root-knot nematode [4]; 168 h, Table 3, 5 ppm, inoculation 1 week after treatment",99%
same,pest or weed control at 10 ppm,"root-knot nematode [4]; 168 h, Table 3, 10 ppm, inoculation 1 week after treatment",98%
same,pest or weed control at 5 ppm,"root-knot nematode [4]; 336 h, Table 3, 5 ppm, inoculation 2 weeks after treatment",63%
same,pest or weed control at 5 ppm,"root-knot nematode [4]; 672 h, Table 3, 5 ppm, inoculation 4 weeks after treatment",25%
same,pest or weed control at 5 ppm,"stunt nematode; 672 h, Table 4; rate 5 ppm; read-out: Percent Control",30%
same,pest or weed control at 10 ppm,"stunt nematode; 672 h, Table 4; rate 10 ppm; read-out: Percent Control",61%
"FC(F)=C(F)CCSc1nnc(Cc2ccccc2F)o1 [Compound 44, 2-(2-fluorophenylmethyl)-5-(3,4,4-trifluoro-3-butenylthio)-1,3,4-oxadiazole]",pest or weed control at 5 ppm,root-knot nematode [1]; [5],96%
same,pest or weed control at 5 ppm,"root-knot nematode [1]; Table 7a, 5% dust, 5 ppm, MIDDLE container, read-out: Percent Control",100%
same,pest or weed control at 5 ppm,root-knot nematode [1]; [6],100%
same,inhibition at 5 ppm,"Caenorhabditis elegans; Table 9 screen, 5 ppm",25%
same,mortality at 5 ppm,"Caenorhabditis elegans; Table 9 screen, 5 ppm",0%
same,pest or weed control at 2.5 ppm,"lesion nematode; Table 5, rate 2.5 ppm",88%
same,pest or weed control at 5 ppm,"cyst nematode; Table 6, rate 5 ppm",59%
same,pest or weed control at 0.312 ppm,[3]; [8],50%
same,pest or weed control at 0.625 ppm,[3]; [9],76%
same,pest or weed control at 1.25 ppm,[3]; [10],86%
same,pest or weed control at 2.5 ppm,[3]; [11],98%
same,pest or weed control at 5 ppm,root-knot nematode [4]; [12],100%
same,pest or weed control at 5 ppm,root-knot nematode [4]; [13],100%
same,pest or weed control at 5 ppm,"root-knot nematode [4]; 672 h, Table 3a, 5% dust, 5 ppm, inoculation 4 weeks post-treatment",100%
same,pest or weed control at 5 ppm,"stunt nematode; 672 h, Table 4a; rate 5 ppm; read-out: Percent Control",75%
